From ChEMBL document CHEMBL1201862, “PubChem BioAssay data set” (2004)
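A five-concentration, 48-hour dose response in 96-well plates underlies each endpoint, interpolated linearly between surrounding concentrations. Abbreviation: GI50, concentration required for 50% inhibition of growth.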 Active and inactive are the calls of the source. No stated cut-off is given here; in the data, active = GI50 up to about 1.1 µM and inactive = higher.

Key:
Experiment in all cases: NCI anticancer screen, dose series, 48 h
NCI-H23 = system: NCI-H23
A549 = system: A549
ACHN = system: ACHN
UACC-62 = system: UACC-62
MOLT-4 = system: MOLT-4
Malme-3M = system: Malme-3M
LOX IMVI = system: LOX IMVI
RXF 393 = system: RXF 393
HCT-15 = system: HCT-15
OVCAR-3 = system: OVCAR-3
786-0 = system: 786-0
T47D = system: T47D
HCT-116 = system: HCT-116
EKVX = system: EKVX
OVCAR-5 = system: OVCAR-5
HL-60 = system: HL-60
IGROV-1 = system: IGROV-1
SN12C = system: SN12C
M14 = system: M14
SR = system: SR
MDA-MB-231 = system: MDA-MB-231
K562 = system: K562
HOP-92 = system: HOP-92
CAKI-1 = system: CAKI-1
MCF7 = system: MCF7
UACC-257 = system: UACC-257
HOP-62 = system: HOP-62
KM12 = system: KM12
A498 = system: A498
NCI-H460 = system: NCI-H460
U-251 = system: U-251
NCI/ADR-RES = system: NCI/ADR-RES
HT-29 = system: HT-29
SW-620 = system: SW-620
SF-295 = system: SF-295
CCRF-CEM = system: CCRF-CEM
RPMI-8226 = system: RPMI-8226
NCI-H226 = system: NCI-H226
SF-539 = system: SF-539
DU-145 = system: DU-145
SNB-75 = system: SNB-75
MDA-MB-435 = system: MDA-MB-435
PC-3 = system: PC-3
TK-10 = system: TK-10
OVCAR-8 = system: OVCAR-8
NCI-H522 = system: NCI-H522
OVCAR-4 = system: OVCAR-4
UO-31 = system: UO-31
SK-MEL-5 = system: SK-MEL-5
SF-268 = system: SF-268
SNB-19 = system: SNB-19
SK-MEL-28 = system: SK-MEL-28
COLO 205 = system: COLO 205
Hs-578T = system: Hs-578T
MDA-N = system: MDA-N
HCC 2998 = system: HCC 2998
SK-MEL-2 = system: SK-MEL-2
SK-OV-3 = system: SK-OV-3

SMILES: O=C(NC1C(=O)NC(CCc2ccccc2)NC1=O)OCc1ccccc1 (stereo not drawn)
- GI50 (NCI-H23): > 100 µM (inactive)
- GI50 (A549): > 100 µM (inactive)
- GI50 (ACHN): > 100 µM (inactive)
- GI50 (UACC-62): > 100 µM (inactive)
- GI50 (MOLT-4): > 100 µM (inactive)
- GI50 (Malme-3M): > 100 µM (inactive)
- GI50 (LOX IMVI): > 100 µM (inactive)
- GI50 (RXF 393): > 100 µM (inactive)
- GI50 (HCT-15): > 100 µM
- GI50 (OVCAR-3): > 100 µM (inactive)
- GI50 (786-0): > 100 µM (inactive)
- GI50 (T47D): > 100 µM (inactive)
- GI50 (HCT-116): > 100 µM (inactive)
- GI50 (EKVX): > 100 µM (inactive)
- GI50 (OVCAR-5): > 100 µM (inactive)
- GI50 (HL-60): > 100 µM (inactive)
- GI50 (IGROV-1): > 100 µM (inactive)
- GI50 (SN12C): > 100 µM (inactive)
- GI50 (M14): > 100 µM (inactive)
- GI50 (SR): > 100 µM (inactive)
- GI50 (MDA-MB-231): > 100 µM (inactive)
- GI50 (K562): > 100 µM (inactive)
- GI50 (HOP-92): > 100 µM (inactive)
- GI50 (CAKI-1): > 100 µM (inactive)
- GI50 (MCF7): > 100 µM (inactive)
- GI50 (UACC-257): > 100 µM (inactive)
- GI50 (HOP-62): > 100 µM (inactive)
- GI50 (KM12): > 100 µM (inactive)
- GI50 (A498): > 100 µM (inactive)
- GI50 (NCI-H460): > 100 µM (inactive)
- GI50 (U-251): > 100 µM (inactive)
- GI50 (NCI/ADR-RES): > 100 µM (inactive)
- GI50 (HT-29): > 100 µM (inactive)
- GI50 (SW-620): > 100 µM (inactive)
- GI50 (SF-295): > 100 µM (inactive)
- GI50 (CCRF-CEM): > 100 µM (inactive)
- GI50 (RPMI-8226): > 100 µM (inactive)
- GI50 (NCI-H226): > 100 µM (inactive)
- GI50 (SF-539): > 100 µM (inactive)
- GI50 (DU-145): > 100 µM (inactive)
- GI50 (SNB-75): > 100 µM (inactive)
- GI50 (MDA-MB-435): > 100 µM (inactive)
- GI50 (PC-3): > 100 µM (inactive)
- GI50 (TK-10): > 100 µM (inactive)
- GI50 (OVCAR-8): > 100 µM (inactive)
- GI50 (NCI-H522): > 100 µM (inactive)
- GI50 (OVCAR-4): > 100 µM (inactive)
- GI50 (UO-31): > 100 µM (inactive)
- GI50 (SK-MEL-5): > 100 µM (inactive)
- GI50 (SF-268): > 100 µM (inactive)
- GI50 (SNB-19): > 100 µM (inactive)
- GI50 (SK-MEL-28): > 100 µM (inactive)
- GI50 (COLO 205): > 100 µM (inactive)

SMILES: CC[C@@H](CCCCC1CC[C@H]2CC(=O)C[C@@H]12)OC (stereo partly drawn)
- GI50 (UACC-62): > 100 µM (inactive)
- GI50 (Malme-3M): > 100 µM (inactive)
- GI50 (Hs-578T): > 100 µM (inactive)
- GI50 (EKVX): > 100 µM (inactive)
- GI50 (HL-60): 36 µM (inactive)
- GI50 (MDA-N): > 100 µM (inactive)
- GI50 (M14): > 100 µM (inactive)
- GI50 (SR): > 100 µM (inactive)
- GI50 (K562): 33.7 µM (inactive)
- GI50 (HOP-62): > 100 µM (inactive)
- GI50 (KM12): > 100 µM (inactive)
- GI50 (RPMI-8226): > 100 µM (inactive)
- GI50 (MDA-MB-435): > 100 µM (inactive)
- GI50 (PC-3): > 100 µM (inactive)
- GI50 (OVCAR-4): > 100 µM (inactive)

SMILES: O=[N+]([O-])c1cnc(N(CCO)CCO)s1
- GI50 (NCI-H23): > 100 µM (inactive)
- GI50 (A549): > 100 µM (inactive)
- GI50 (ACHN): > 100 µM (inactive)
- GI50 (UACC-62): > 100 µM (inactive)
- GI50 (MOLT-4): > 100 µM (inactive)
- GI50 (Malme-3M): > 100 µM (inactive)
- GI50 (LOX IMVI): > 100 µM (inactive)
- GI50 (RXF 393): > 100 µM (inactive)
- GI50 (HCT-15): > 100 µM
- GI50 (OVCAR-3): > 100 µM (inactive)
- GI50 (HCC 2998): > 100 µM (inactive)
- GI50 (786-0): > 100 µM (inactive)
- GI50 (T47D): > 100 µM (inactive)
- GI50 (HCT-116): > 100 µM (inactive)
- GI50 (SK-MEL-2): > 100 µM (inactive)
- GI50 (EKVX): > 100 µM (inactive)
- GI50 (OVCAR-5): > 100 µM (inactive)
- GI50 (HL-60): > 100 µM (inactive)
- GI50 (MDA-N): > 100 µM (inactive)
- GI50 (IGROV-1): > 100 µM (inactive)
- GI50 (SN12C): > 100 µM (inactive)
- GI50 (M14): > 100 µM (inactive)
- GI50 (SR): > 100 µM (inactive)
- GI50 (MDA-MB-231): > 100 µM (inactive)
- GI50 (K562): > 100 µM (inactive)
- GI50 (HOP-92): > 100 µM (inactive)
- GI50 (CAKI-1): > 100 µM (inactive)
- GI50 (MCF7): > 100 µM (inactive)
- GI50 (UACC-257): > 100 µM (inactive)
- GI50 (HOP-62): > 100 µM (inactive)
- GI50 (KM12): > 100 µM (inactive)
- GI50 (A498): > 100 µM (inactive)
- GI50 (NCI-H460): > 100 µM (inactive)
- GI50 (U-251): > 100 µM (inactive)
- GI50 (SK-OV-3): > 100 µM (inactive)
- GI50 (NCI/ADR-RES): > 100 µM (inactive)
- GI50 (HT-29): > 100 µM (inactive)
- GI50 (SW-620): > 100 µM (inactive)
- GI50 (SF-295): > 100 µM (inactive)
- GI50 (CCRF-CEM): 79.6 µM (inactive)
- GI50 (NCI-H226): > 100 µM (inactive)
- GI50 (SF-539): > 100 µM (inactive)
- GI50 (DU-145): > 100 µM (inactive)
- GI50 (SNB-75): < 0.01 µM (active)
- GI50 (MDA-MB-435): > 100 µM (inactive)
- GI50 (PC-3): > 100 µM (inactive)
- GI50 (OVCAR-8): > 100 µM (inactive)
- GI50 (NCI-H522): > 100 µM (inactive)
- GI50 (OVCAR-4): > 100 µM (inactive)
- GI50 (UO-31): > 100 µM (inactive)
- GI50 (SK-MEL-5): > 100 µM (inactive)
- GI50 (SF-268): > 100 µM (inactive)
- GI50 (SNB-19): > 100 µM (inactive)
- GI50 (SK-MEL-28): > 100 µM (inactive)
- GI50 (COLO 205): > 100 µM (inactive)
